According to patent publication US20040077080A1, “Compositions and methods for induction of proteins involved in xenobiotic metabolism” (priority 2000, published 2004):
Like-named read-outs stand apart in the source and are kept apart here.

Legend:
MDR1 P-glycoprotein mRNA = test: Northern blot of MDR1 P-glycoprotein expression (Example VI)
Source text: FIG. 31 depicts MDR1 gene expression in LS174T cells as analyzed by Northern blot. […] Total RNA from the colon adenocarcinoma cell line LS174T was isolated and fractionated on a 1% formaldehyde gel and transferred onto a nylon membrane. The RNA blot was hybridized to ^32P-labeled MDR1 cDNA probe (top panel) or 18s rRNA probe for normalization of RNA loading on the gel (bottom panel).
(§1) FIG. 32A: Lanes 1 and 2, primary human hepatocytes; lanes 3 and 4, LS174T cells. FIG. 32B: Lanes 1 and 2, HepG2 cells; lanes 3 and 4, HepG2 that overexpress PXR (Hepg-PXR cells). FIG. 32C: Lanes 1 and 2, Caco-2; lanes 3 and 4, Caco-2 cells that overexpress PXR (Caco-PXR cells).
(§2) Total RNA from the colon adenocarcinoma cell line LS174T was isolated and fractionated on a 1% formaldehyde gel and transferred onto a nylon membrane. The RNA blot was hybridized to ^32-P-labeled MDR1 cDNA probe (top panels), ^32-P-labeled CYP3A4 cDNA probe (middle panels), or 18s rRNA probe for normalization of RNA loading on the gel (bottom panels).
(§3) FIG. 37 depicts MDR1 gene regulation in response to chrysin as studied by Northern blot analysis. […] Total RNA from the hepatocytes was isolated and fractionated on a 1% formaldehyde gel and transferred onto a nylon membrane. The RNA blot was hybridized to ^32-P-labeled MDR1 cDNA probe (top panels), ^32P-labeled CYP3A4 cDNA probe (middle panels), or 18s rRNA probe for normalization of RNA loading on the gel (bottom panels).
Northern Blot analysis for MDR1 P-glycoprotein and CYP3A4 expression: Total RNA was prepared from cells (primary hepatocytes, LS174T, HepG2, or Caco-2) using Trizol reagent (Invitrogen, Carlsbad, Calif.). For Northern blots, 15 micrograms of total RNA was fractionated on a 1% formaldehyde gel and transferred onto a nylon membrane by capillary transfer. A 530-base pair fragment of MDR1 cDNA was obtained from PCR cloning using the sense primer […] The resulting fragment was ^32P-labeled by random priming (Invitrogen, Carlsbad, Calif.) for use as an MDR1 probe. […] All constructs and cDNAs were subjected to sequence analysis. Hybridization was performed with the ExpressHyb system according to the manufacturer's instructions (Clontech, Palo Alto, Calif.).

CYP3A4 mRNA (PXR) [1] = system: CYP3A4 mRNA (PXR)
[2] = system: PXR / mdr1(dr4) response element; test: Transient transfection mdr1(dr4)-Luc reporter assay with PXR; conditions: Caco-2 cells transiently co-transfected with mdr1(dr4)-Luc and PXR; 48 hours
[3] = system: PXR / mdr1(dr4) response element; test: Hep-PXR/Pgp-Luc stable cell luciferase assay
Method: (§4) FIG. 35 depicts dose-response behavior to various PXR activators in stable cell lines overexpressing PXR and harboring DR4 response element. FIG. 35A: Results are shown for the stable cell line Hep-PXR/PgpLuc. FIG. 35B: Results are shown for the stable cell line Caco-PXR/PgpLuc.
(§5) Cells were exposed to the test compounds for 48 hours at the concentrations indicated.
FIG. 36 depicts the effect of environmental and botanical chemicals on luciferase activity in the stable cell line Hep-PXR/PgpLuc. Cells were inoculated into 96-well plates at a density of 2×10^4 cells per well. After overnight recovery, cells were treated with the test compounds at the concentrations indicated for 48 hours.
(§6) Establishment of stable transformants containing both PXR and reporter plasmid and development of high throughput bioassay for PXR-dependent transactivation: The stable transformants Hep-PXR/mdr1(dr4)-Luc and Caco-PXR/mdr1(dr4)-Luc cell lines were generated from the parental cell lines HepG-PXR and Caco-PXR, respectively, according to the following procedure. The parental cell lines HepG-PXR and Caco-PXR, which overexpress PXR, were stably transfected with the luciferase reporter plasmid mdr1(dr4)-Luc. The transfected cells were cultured in DMEM (HepG-PXR cells) or in IMEM (Caco-PXR cells), both media supplemented with 10% fetal bovine serum and neomycin (700 micrograms per milliliter).
(§7) For the induction assay, stable transformants were seeded in 96-wells plates at a density of 1×10^4 cells per well and allowed to recover overnight. Plates were treated with test compounds at varying concentrations, using 3 replicates per dose. After 48 hours of exposure to the test compound, cells were washed with phosphate buffered saline, lysis buffer was applied to the wells, and luciferase substrate added. Following 10 minutes for light adaptation, luminescence was monitored according to the manufacturer's instructions (Packard kit, Biomed).

[4] = system: PXR / mdr1(dr4) response element; test: Caco-PXR/Pgp-Luc stable cell luciferase assay
Method: as §4, §5, §6, §7

CYP3A4 mRNA (PXR) [5] = test: Northern blot of CYP3A4 in stable cells overexpressing PXR (Hepg-PXR); conditions: stable cells that overexpress PXR
[6] = system: PXR / mdr1(dr4) response element; conditions: human, 48 h
CYP3A4 mRNA = conditions: human, 48 h, 25 µM
Source text: as §1, §2, §3
Northern Blot analysis for MDR1 P-glycoprotein and CYP3A4 expression: Total RNA was prepared from cells (primary hepatocytes, LS174T, HepG2, or Caco-2) using Trizol reagent (Invitrogen, Carlsbad, Calif.). […]

[7] = system: AhR (dioxin response elements); test: in vitro; conditions: human, fold induction of luciferase activity above DMSO, DRE12-6 cells, 28 hours; TCDD 10 nanomoles per liter, omeprazole 25, 2-AAF 100, DMBA 20 micromoles per liter

CC(=O)[C@H]1[C@H](C#N)C[C@H]2[C@@H]3CC=C4C[C@@H](O)CC[C@]4(C)[C@H]3CC[C@@]21C [PCN, pregnenolone 16 alpha-carbonitrile]
MDR1 expression in LS174T cells (in words) (MDR1 P-glycoprotein mRNA; LS174T cells, 48 hours): only a slightly increase | fold increase in luciferase activity above DMSO, single concentrations (FIG. 15) (CYP3A4 enhancer (PXRE)): less than one | fold increase in luciferase activity above DMSO, single concentrations (FIG. 14) (hPXR / CYP3A4 enhancer): less than two | CYP3A4 induction by Northern blot (in words) (CYP3A4 mRNA (PXR) [1]): not | fold increase in luciferase activity [2]: only a minor increase

CC[C@H](C)C(=O)O[C@H]1CCC=C2C=C[C@H](C)[C@H](CC[C@@H]3C[C@@H](O)CC(=O)O3)[C@H]21 [mevastatin]
dose dependence of luciferase induction (in words) [3]: dose-dependent luciferase induction | dose dependence of luciferase induction (in words) [4]: dose-dependent luciferase induction | strength of luciferase induction (in words) [4]: strongly induce | CYP3A4 induction by Northern blot (in words) (CYP3A4 mRNA (PXR) [5]): efficiently activated

COc1ccc2[nH]c([S+]([O-])Cc3ncc(C)c(OC)c3C)nc2c1 (stereo not shown) [omeprazole]
dose dependence of luciferase induction (in words) [3]: dose-dependent luciferase induction | dose dependence of luciferase induction (in words) [4]: dose-dependent luciferase induction | fold increase in luciferase activity [6]: 3-6 fold

O=c1cc(-c2ccccc2)oc2cc(O)cc(O)c12 [chrysin]
MDR1 P-glycoprotein expression in primary human hepatocytes (in words) (MDR1 P-glycoprotein mRNA; human, 48 h, 25 µM): induce the expression of both MDR1 and CYP3A4 | CYP3A4 expression in primary hepatocytes (in words) (CYP3A4 mRNA): induce the expression of both MDR1 and CYP3A4 | fold increase in luciferase activity ([3]; human, 48 h): 5 fold | fold induction [7]: 4.2
